Measurements reported in patent publication US9187768B2, “Alcoholic fermentation yeast and method for producing ethanol using same” (NIPPON STEEL & SUMIKIN ENGINEERING CO., LTD., priority 2010, dated 2015).

System: general yeast
Experiment: Ethanol fermentation by a general yeast with limonene added to YPD culture medium
Assay type: cell-based, Saccharomyces Cerevisiae
Conditions: 0.1% v/v of limonene added
Excerpt: Generally, yeast is present in a sugar solution as fine solid particles and easily adsorbs oily substances. Therefore, the reason for the above-described experimental results may be that the limonene (in an oil form) added in a small amount (0.05% v/v) adsorbed to the yeast, causing fermentation inhibition. To remove limonene, which is a fermentation inhibitor, from a juice residue extract, limonene in a solid form, which accounts for 75% or larger of the total amount of limonene, must be removed, and limonene in a micelle form present as a light liquid (an oily substance) must also be removed. […] Therefore, fermentability tended to be unstable due to the influence of contamination etc. and it was difficult to maintain high fermentability over a long period of time.

C=C(C)[C@H]1CC=C(C)CC1 [limonene]
rate of ethanol production: about 20%
